Laboratory results: ChEMBL document CHEMBL1201862, “PubChem BioAssay data set” (2004)
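Values below derive from 48-hour exposures of cells grown in 96-well plates, with endpoints linearly interpolated between the two concentrations bracketing the appropriate inhibition level. Abbreviation: GI50, concentration required for 50% inhibition of growth.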 The source made the active and inactive calls. Cut-off read from the data, not from the text of the source: active = GI50 up to about 1.1 µM and inactive = higher.

Columns and labels:
Assay in all cases: NCI anticancer screen, dose series, 48 h
OVCAR-3 = test system: OVCAR-3
RPMI-8226 = test system: RPMI-8226
UACC-62 = test system: UACC-62
IGROV-1 = test system: IGROV-1
NCI-H460 = test system: NCI-H460
HCT-116 = test system: HCT-116
UO-31 = test system: UO-31
Malme-3M = test system: Malme-3M
NCI-H23 = test system: NCI-H23
A498 = test system: A498
SNB-75 = test system: SNB-75
TK-10 = test system: TK-10
NCI-H226 = test system: NCI-H226
HCC 2998 = test system: HCC 2998
HL-60 = test system: HL-60
SF-539 = test system: SF-539
RXF 393 = test system: RXF 393
HOP-92 = test system: HOP-92

Measured: GI50

O=C1[C@H](Cl)[C@H]2c3cc4ccccc4nc3Oc3ccccc3N12
inactive: OVCAR-3 48.4 µM | RPMI-8226 22.6 µM | UACC-62 18.3 µM | IGROV-1 32.7 µM | NCI-H460 53.7 µM | HCT-116 17.2 µM | UO-31 14.9 µM | Malme-3M 49.4 µM | NCI-H23 35.1 µM | A498 42.9 µM | SNB-75 1.4 µM | TK-10 > 100 µM | NCI-H226 75.9 µM | HCC 2998 39.4 µM | HL-60 25.5 µM

Cc1cccc(C)c1NC(=O)CCCC(=O)C(C#N)c1ccccc1 (centres undefined)
inactive: OVCAR-3 > 10 µM | RPMI-8226 > 100 µM | SF-539 > 10 µM | UACC-62 > 10 µM | IGROV-1 > 100 µM | NCI-H460 > 10 µM | HCT-116 > 100 µM | UO-31 > 100 µM | NCI-H23 > 100 µM | RXF 393 > 100 µM | A498 > 10 µM | SNB-75 > 100 µM | HOP-92 > 100 µM | NCI-H226 > 100 µM | HCC 2998 > 10 µM | HL-60 > 100 µM

O=C(CO)C1CC2C=CC1C2 (centres undefined)
inactive: OVCAR-3 > 100 µM | RPMI-8226 > 100 µM | SF-539 > 100 µM | UACC-62 > 100 µM | IGROV-1 > 100 µM | NCI-H460 > 100 µM | HCT-116 > 100 µM | UO-31 > 100 µM | Malme-3M > 100 µM | NCI-H23 > 100 µM | RXF 393 > 100 µM | A498 > 100 µM | SNB-75 > 100 µM | HOP-92 > 100 µM | TK-10 > 100 µM | HL-60 > 100 µM

CCN(CC)C(=O)C/C(C)=N/NC(=O)c1ccncc1
inactive: OVCAR-3 > 100 µM | RPMI-8226 > 100 µM | SF-539 > 100 µM | UACC-62 > 100 µM | IGROV-1 > 100 µM | NCI-H460 > 100 µM | HCT-116 > 100 µM | UO-31 > 100 µM | Malme-3M > 100 µM | NCI-H23 > 100 µM | RXF 393 > 100 µM | SNB-75 > 100 µM | HOP-92 > 100 µM | TK-10 > 100 µM | NCI-H226 > 100 µM | HCC 2998 > 100 µM | HL-60 > 100 µM

O=[N+]([O-])[C@@H]1C2C=CC(C2)[C@H]1Cl (some centres undefined)
inactive: OVCAR-3 > 100 µM | RPMI-8226 > 100 µM | SF-539 > 100 µM | UACC-62 > 100 µM | IGROV-1 > 100 µM | NCI-H460 > 100 µM | HCT-116 > 100 µM | UO-31 > 100 µM | Malme-3M > 100 µM | NCI-H23 > 100 µM | RXF 393 > 100 µM | A498 > 100 µM | SNB-75 > 100 µM | HOP-92 > 100 µM | TK-10 > 100 µM | HL-60 > 100 µM

c1ccc2c(c1)OCCOCCOc1ccccc1OCCO2
inactive: OVCAR-3 28.2 µM | RPMI-8226 22.3 µM | SF-539 > 100 µM | UACC-62 51.2 µM | IGROV-1 71.8 µM | NCI-H460 36.3 µM | HCT-116 40.5 µM | UO-31 30 µM | Malme-3M 33.1 µM | NCI-H23 > 100 µM | RXF 393 60.1 µM | A498 > 100 µM | SNB-75 47.1 µM | HOP-92 51.5 µM | TK-10 45.6 µM | NCI-H226 79.6 µM | HL-60 24.8 µM

COc1nc(NC2OCC(OC(C)=O)C(OC(C)=O)C2OC(C)=O)c(-c2csc(N)n2)c(=O)n1C (centres undefined)
inactive: OVCAR-3 > 100 µM | RPMI-8226 > 100 µM | SF-539 > 100 µM | UACC-62 > 100 µM | IGROV-1 > 100 µM | NCI-H460 > 100 µM | HCT-116 > 100 µM | UO-31 > 100 µM | Malme-3M > 100 µM | NCI-H23 > 100 µM | A498 > 100 µM | SNB-75 > 100 µM | HOP-92 > 100 µM | TK-10 > 100 µM | NCI-H226 > 100 µM | HL-60 > 100 µM

CCc1cc(C)cc2[n+]1CC=C2C.[O-][Cl+3]([O-])([O-])[O-]
inactive: OVCAR-3 93.1 µM | SF-539 > 100 µM | NCI-H460 > 100 µM | UO-31 > 100 µM | Malme-3M 35 µM | NCI-H23 66.1 µM | RXF 393 27.3 µM | SNB-75 > 100 µM | HOP-92 8.63 µM | TK-10 > 100 µM | NCI-H226 > 100 µM | HCC 2998 > 100 µM | HL-60 18.2 µM

O=C1CC(c2ccccc2)NCN1 (centres undefined)
inactive: OVCAR-3 > 100 µM | RPMI-8226 > 100 µM | UACC-62 > 100 µM | IGROV-1 > 100 µM | HCT-116 > 100 µM | UO-31 > 100 µM | Malme-3M > 100 µM | NCI-H23 > 100 µM | RXF 393 > 100 µM | A498 > 100 µM | SNB-75 > 100 µM | TK-10 > 100 µM | NCI-H226 > 100 µM | HCC 2998 > 100 µM | HL-60 > 100 µM

Cc1c(C(=O)/C=C/c2ccccc2O)c(=O)n(-c2ccccc2)n1C
inactive: OVCAR-3 29.2 µM | SF-539 19.8 µM | UACC-62 29 µM | IGROV-1 42.1 µM | NCI-H460 12.9 µM | HCT-116 16.5 µM | UO-31 > 10 µM | Malme-3M 19.4 µM | NCI-H23 > 10 µM | RXF 393 14.2 µM | A498 27.5 µM | SNB-75 50.6 µM | HOP-92 28.3 µM | TK-10 90.6 µM | NCI-H226 33.5 µM | HCC 2998 16 µM

S=C(Nc1ccccc1)Nc1ccccc1SC(/C=C/NNC1=NN=C(c2ccccc2)C(c2ccccc2)N1)c1ccccc1 (centres undefined)
inactive: OVCAR-3 > 100 µM | RPMI-8226 59 µM | SF-539 83.9 µM | UACC-62 > 100 µM | IGROV-1 > 100 µM | NCI-H460 > 100 µM | HCT-116 > 100 µM | Malme-3M > 100 µM | RXF 393 8.02 µM | A498 > 100 µM | HOP-92 3.97 µM | TK-10 > 100 µM | HCC 2998 26.4 µM | HL-60 10.4 µM

O=C(O)c1c(-c2cccc3ccccc23)sc(-c2cccc3ccccc23)c1C(=O)O
inactive: OVCAR-3 63.8 µM | RPMI-8226 58.1 µM | SF-539 > 100 µM | UACC-62 46.1 µM | IGROV-1 > 100 µM | NCI-H460 > 100 µM | HCT-116 > 100 µM | UO-31 88.3 µM | Malme-3M > 100 µM | NCI-H23 > 100 µM | RXF 393 > 100 µM | SNB-75 > 100 µM | HOP-92 > 100 µM | TK-10 > 100 µM | NCI-H226 > 100 µM | HCC 2998 > 100 µM | HL-60 > 100 µM

Cc1ccc(-c2nc3c(C(=O)NCCN(C)C)cccc3[nH]2)cc1
inactive: OVCAR-3 21.5 µM | SF-539 9.12 µM | UACC-62 18.1 µM | IGROV-1 15.9 µM | NCI-H460 4.89 µM | HCT-116 5.06 µM | UO-31 9.79 µM | NCI-H23 15 µM | RXF 393 10.7 µM | A498 13 µM | SNB-75 18 µM | HOP-92 13.1 µM | TK-10 17.7 µM | NCI-H226 11.9 µM | HCC 2998 14.3 µM | HL-60 14.2 µM

O=C(N/C(=C\c1ccc(/C=C(\NC(=O)c2ccccc2)c2nc3cc(Cl)ccc3[nH]2)cc1)c1nc2cc(Cl)ccc2[nH]1)c1ccccc1
inactive: OVCAR-3 22.4 µM | RPMI-8226 3.99 µM | SF-539 20.6 µM | UACC-62 16.6 µM | IGROV-1 46 µM | NCI-H460 29.7 µM | HCT-116 17.7 µM | UO-31 25.2 µM | Malme-3M 87.9 µM | NCI-H23 27.7 µM | RXF 393 13.4 µM | A498 22.9 µM | SNB-75 24.4 µM | HOP-92 35.1 µM | TK-10 28.6 µM | NCI-H226 > 100 µM

COc1cc2c(cc1OC)[Se]c1cc(OC)c(OC)cc1[Se]2
inactive: OVCAR-3 > 10 µM | RPMI-8226 > 10 µM | SF-539 90.8 µM | UACC-62 > 10 µM | IGROV-1 > 10 µM | NCI-H460 > 10 µM | HCT-116 > 10 µM | UO-31 > 10 µM | Malme-3M > 10 µM | NCI-H23 > 10 µM | RXF 393 15.1 µM | A498 > 10 µM | SNB-75 6.84 µM | HOP-92 69 µM | TK-10 > 10 µM | NCI-H226 > 10 µM | HL-60 3.93 µM

COc1c(O)c2c3c(cc(C)cc3c1C(C)C)OC2
inactive: OVCAR-3 > 100 µM | RPMI-8226 > 100 µM | SF-539 > 100 µM | UACC-62 > 100 µM | IGROV-1 > 100 µM | NCI-H460 > 100 µM | HCT-116 > 100 µM | UO-31 > 100 µM | Malme-3M > 100 µM | NCI-H23 > 100 µM | RXF 393 > 100 µM | SNB-75 > 100 µM | HOP-92 > 100 µM | TK-10 > 100 µM | NCI-H226 > 100 µM | HCC 2998 > 100 µM | HL-60 > 100 µM

COC(=O)[C@@]12C(=O)C=CC(=O)C1C1C(=CC2C)OC2OC3(CCCCC3)OC21 (some centres undefined)
inactive: OVCAR-3 19.6 µM | RPMI-8226 4.89 µM | UACC-62 15.2 µM | IGROV-1 18.1 µM | NCI-H460 18.8 µM | HCT-116 15.9 µM | UO-31 16.8 µM | Malme-3M 20.2 µM | NCI-H23 19.4 µM | A498 17.9 µM | SNB-75 18.9 µM | TK-10 17.3 µM | NCI-H226 18.8 µM | HCC 2998 14.5 µM | HL-60 3.85 µM
